Data on ten molecules can be found in ChEMBL document CHEMBL4321846, “Discovery of a Potent and Selective Oral Inhibitor of ERK1/2 (AZD0364) That Is Efficacious in Both Monotherapy and Combination Therapy in Models of Nonsmall Cell Lung Cancer (NSCLC)” (J Med Chem, 2019).

Each structure is given as a SMILES string.

In assay [1] the target is T1, Mitogen-activated protein kinase 1 (Homo sapiens, UniProt P28482).
Assay [2] deals with T1, Mitogen-activated protein kinase 1. The source holds these as a separate data set.
The target is the same in assay [3]. The source holds these as a separate data set.
For assay [4] the target is unchanged. The source holds these as a separate data set.
Assay [5] has the same target. The source holds these as a separate data set.
For assay [6] the target is unchanged. The source holds these as a separate data set.
Assay [7] has the same target. Nature of the assay: Inhibition of MEK U911-activated ERK2 (unknown origin) using ERKtide as substrate preincubated for 20 mins followed by substrate addition in presence of ATP at Km concentration after 20 mins by rapidfire mass spectrometry analysis.
Assay [8] has the same target. The assay is described as follows: Inhibition of MEK U911-activated ERK2 (unknown origin) using ERKtide as substrate preincubated for 20 mins followed by substrate addition in presence of 1 mM ATP after 10 mins by rapidfire mass spectrometry analysis.
Assay [9] deals with T2, Mitogen-activated protein kinase; ERK1/ERK2 (Homo sapiens, UniProt P27361+P28482). The assay is described as follows: Inhibition of ERK1/2 in human A375 cells assessed as inhibition of ERK phosphorylation after 2 hrs. The assay is classed as cell-based.
Assay [10] concerns the target T2, Mitogen-activated protein kinase; ERK1/ERK2. The assay is described as follows: Inhibition of ERK1/2 in human A375 cells assessed as inhibition of RSK phosphorylation after 2 hrs. Format: cell-based.
Assay [11] addresses Voltage-gated inwardly rectifying potassium channel KCNH2 (Homo sapiens, UniProt Q12809).

T1 sequence (P28482 whole entry): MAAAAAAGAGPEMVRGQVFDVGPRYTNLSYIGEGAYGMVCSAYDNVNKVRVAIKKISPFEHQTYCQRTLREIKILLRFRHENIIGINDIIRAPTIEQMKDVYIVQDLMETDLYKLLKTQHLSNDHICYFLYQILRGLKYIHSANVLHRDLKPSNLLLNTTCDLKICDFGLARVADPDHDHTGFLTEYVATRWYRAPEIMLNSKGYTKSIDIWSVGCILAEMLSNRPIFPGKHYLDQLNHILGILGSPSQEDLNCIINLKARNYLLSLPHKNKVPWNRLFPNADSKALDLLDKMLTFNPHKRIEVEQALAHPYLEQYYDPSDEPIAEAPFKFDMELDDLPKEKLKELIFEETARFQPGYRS
Chain of Voltage-gated inwardly rectifying potassium channel KCNH2 (Q12809 whole entry): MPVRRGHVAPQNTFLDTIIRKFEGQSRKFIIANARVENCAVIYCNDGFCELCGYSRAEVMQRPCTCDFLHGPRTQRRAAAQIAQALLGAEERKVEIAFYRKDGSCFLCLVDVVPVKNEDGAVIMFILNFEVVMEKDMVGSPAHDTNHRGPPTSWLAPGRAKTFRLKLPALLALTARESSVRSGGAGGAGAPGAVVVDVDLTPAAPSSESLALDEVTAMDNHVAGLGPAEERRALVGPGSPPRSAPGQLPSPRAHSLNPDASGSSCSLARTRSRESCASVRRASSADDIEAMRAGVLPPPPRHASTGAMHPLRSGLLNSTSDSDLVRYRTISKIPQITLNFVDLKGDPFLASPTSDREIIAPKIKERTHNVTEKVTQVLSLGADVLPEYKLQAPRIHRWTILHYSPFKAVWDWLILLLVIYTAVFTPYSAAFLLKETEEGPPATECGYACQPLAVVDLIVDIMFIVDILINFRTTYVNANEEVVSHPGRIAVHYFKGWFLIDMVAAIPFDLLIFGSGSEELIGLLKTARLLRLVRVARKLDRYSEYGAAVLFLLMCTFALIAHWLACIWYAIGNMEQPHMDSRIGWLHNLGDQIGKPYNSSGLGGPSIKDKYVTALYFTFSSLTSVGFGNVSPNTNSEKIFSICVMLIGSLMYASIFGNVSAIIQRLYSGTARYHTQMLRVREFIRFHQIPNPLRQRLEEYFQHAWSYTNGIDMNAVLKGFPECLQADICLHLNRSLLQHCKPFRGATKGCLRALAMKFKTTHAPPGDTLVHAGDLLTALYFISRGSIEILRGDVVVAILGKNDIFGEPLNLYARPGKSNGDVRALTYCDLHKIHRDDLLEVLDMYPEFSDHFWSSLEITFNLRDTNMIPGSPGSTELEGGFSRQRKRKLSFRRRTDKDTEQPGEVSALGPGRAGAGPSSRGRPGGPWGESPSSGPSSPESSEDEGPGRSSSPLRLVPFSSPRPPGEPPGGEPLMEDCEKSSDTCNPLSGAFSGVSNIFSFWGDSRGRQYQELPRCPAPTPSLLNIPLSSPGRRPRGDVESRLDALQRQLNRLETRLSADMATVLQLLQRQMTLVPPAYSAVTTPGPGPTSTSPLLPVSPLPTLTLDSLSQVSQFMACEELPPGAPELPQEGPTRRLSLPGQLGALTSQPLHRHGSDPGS

Consider `CC(C)Nc1cc(-c2c[nH]c(C(=O)N[C@H](CO)c3cccc(Cl)c3)c2)c(Cl)cn1`, for which the Ka in assay [1] came out at 7.5 ×10⁻⁵ /M/s; in [2], 1.3 ×10⁻⁶ /M/s. Further, the Kdiss in [3] worked out at 7.4 ×10⁻³ /s; in [4], 4.1 ×10⁻⁴ /s. In addition, the T1/2 is 2 min in assay [5] and 35 min in assay [6].

In turn, `Cn1nccc1Nc1nccc(-c2ccn([C@H](CO)c3ccc(Cl)c(F)c3)c(=O)c2)n1` displayed a Ka in [2] of 9.8 ×10⁻⁶ /M/s. The molecule also registered a Kdiss in [3] of 9.9 ×10⁻³ /s. In addition, the T1/2 in assay [5] was found to be 1.2 min; in assay [6] it was 0.8 min.

`Cc1cnc(Nc2ccnn2C)nc1-c1cn2c(n1)C(=O)N(Cc1ccc(F)c(F)c1)[C@@H](C)C2`: the 50% inhibitory concentration (IC50) in assay [7] was less than 0.3 nM; in [8], 0.32 nM; in assay [9], 3.4 nM; in assay [10], 38 nM; in [11] it was 23000 nM.

As to `O=C(Nc1ccc2[nH]nc(-c3ccncc3)c2c1)[C@@H]1CCN(CC(=O)N2CCN(c3ccc(-c4ncccn4)cc3)CC2)C1`, the Ka turned out to be 9.4 ×10⁻⁵ /M/s in assay [1] and 1.3 ×10⁻⁶ /M/s in [2]. In [3], this molecule gave a Kdiss of 4.4 ×10⁻⁵ /s. Moreover, the T1/2 was found to be 291 min in assay [5] and 127 min in assay [6].

In the case of `COC[C@H]1Cn2cc(-c3nc(Nc4ccnn4C)ncc3C)cc2C(=O)N1Cc1cccc(C)n1`, the IC50 was less than 0.3 nM in [7], 0.6 nM in [8], 30 nM in assay [9] and 60 nM in assay [10].

In the case of `Cc1cnc(Nc2ccnn2C)nc1-c1cc2n(c1)CCN(Cc1cccc(Cl)c1)C2=O`, the IC50 in assay [7] was less than 0.3 nM; in assay [8], 0.13 nM; in assay [9] it was greater than 14000 nM; in assay [10] it was 10 nM.

For the molecule `Cc1cnc(Nc2ccnn2C)nc1-c1cn2c(n1)C(=O)N(Cc1cccc(Cl)c1)CC2`, the IC50 in [7] was less than 0.3 nM; in assay [8], 0.34 nM; in assay [9] it was 4.7 nM; in assay [10], 12 nM.

With `Cc1cnc(Nc2ccnn2C)nc1-c1cn2c(n1)C(=O)N(Cc1ccc(F)c(F)c1)CC2`, the IC50 was found to be 0.83 nM in assay [7]; 2.6 nM in assay [8]; 9.1 nM in [9]; 31 nM in [10]; 23000 nM in [11].

For `Cc1cnc(Nc2ccnn2C)nc1-c1cc2n(c1)CCN(Cc1ccc(F)c(F)c1)C2=O`, the results for the IC50 in [7], in [8] and in [10] were less than 0.3 nM, 0.35 nM and 20 nM, respectively.

Consider `Cc1cccc(CN2C(=O)c3cc(-c4nc(Nc5ccnn5C)ncc4C)cn3C[C@H]2C)n1`, for which the Ka in [1] worked out at 1.3 ×10⁻⁶ /M/s; in assay [2], 1.9 ×10⁻⁶ /M/s. The Kdiss in assay [3] amounted to 1 ×10⁻³ /s; in [4], 3.2 ×10⁻⁴ /s. In addition, the T1/2 in [5] worked out at 11.9 min; in [6] it was 37 min.

What is called IC50 is the concentration that inhibits the measured activity by half.
